We go through three compounds from ChEMBL document CHEMBL1201862, “PubChem BioAssay data set” (2004).

The source made the active and inactive calls.

Assay [1] in a line: C. albicans growth with fluconazole, confirmation, fluorescence, retest (AID 2467). The class given is functional, cell-based.
Assay [2] has as its target T1, Serine/threonine-protein phosphatase (Candida dubliniensis (strain CD36 / CBS 7987 / NCPF 3949 / NRRLY-17841) (Yeast), UniProt B9W6M3).
T1 sequence (B9W6M3 whole entry): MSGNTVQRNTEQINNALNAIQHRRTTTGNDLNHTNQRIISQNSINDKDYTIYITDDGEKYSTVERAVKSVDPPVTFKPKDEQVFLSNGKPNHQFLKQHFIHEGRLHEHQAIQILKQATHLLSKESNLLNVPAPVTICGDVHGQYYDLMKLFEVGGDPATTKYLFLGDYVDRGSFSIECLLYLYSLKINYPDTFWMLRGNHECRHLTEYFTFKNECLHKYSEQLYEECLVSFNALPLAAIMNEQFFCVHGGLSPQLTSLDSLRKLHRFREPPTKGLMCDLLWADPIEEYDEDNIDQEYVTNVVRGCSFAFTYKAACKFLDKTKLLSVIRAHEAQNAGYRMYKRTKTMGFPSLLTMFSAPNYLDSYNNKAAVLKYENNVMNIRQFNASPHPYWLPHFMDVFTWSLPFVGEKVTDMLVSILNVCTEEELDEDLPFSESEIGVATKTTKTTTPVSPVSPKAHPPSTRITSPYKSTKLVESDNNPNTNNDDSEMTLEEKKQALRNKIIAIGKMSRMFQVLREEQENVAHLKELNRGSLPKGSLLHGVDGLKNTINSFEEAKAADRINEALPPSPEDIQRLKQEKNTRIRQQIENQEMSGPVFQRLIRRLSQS
As to the kind of experiment: calcineurin pathway inhibitors in yeast reporter, dose response, S. cerevisiae, CDRE-lacZ, luminescence, secondary (AID 2388).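 Further: yeast reporter cells carrying a calcineurin-responsive lacZ construct stimulated with calcium chloride; luminescent beta-galactosidase reporter signal in whole cells rather than isolated phosphatase activity; potency for inhibition where a drop in reporter signal means calcineurin blockade.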 The class given is functional, cell-based.

Assay [3] has as its target Serine/threonine-protein phosphatase (Homo sapiens, UniProt Q9BPW0). As to the kind of experiment: PP5 phosphatase inhibitors, dose response, biochemical, fluorescence (AID 2395).
The target in assay [4] is T2, Sentrin-specific protease 7 (Homo sapiens, UniProt Q9BQF6).
T2 sequence (Q9BQF6 whole entry): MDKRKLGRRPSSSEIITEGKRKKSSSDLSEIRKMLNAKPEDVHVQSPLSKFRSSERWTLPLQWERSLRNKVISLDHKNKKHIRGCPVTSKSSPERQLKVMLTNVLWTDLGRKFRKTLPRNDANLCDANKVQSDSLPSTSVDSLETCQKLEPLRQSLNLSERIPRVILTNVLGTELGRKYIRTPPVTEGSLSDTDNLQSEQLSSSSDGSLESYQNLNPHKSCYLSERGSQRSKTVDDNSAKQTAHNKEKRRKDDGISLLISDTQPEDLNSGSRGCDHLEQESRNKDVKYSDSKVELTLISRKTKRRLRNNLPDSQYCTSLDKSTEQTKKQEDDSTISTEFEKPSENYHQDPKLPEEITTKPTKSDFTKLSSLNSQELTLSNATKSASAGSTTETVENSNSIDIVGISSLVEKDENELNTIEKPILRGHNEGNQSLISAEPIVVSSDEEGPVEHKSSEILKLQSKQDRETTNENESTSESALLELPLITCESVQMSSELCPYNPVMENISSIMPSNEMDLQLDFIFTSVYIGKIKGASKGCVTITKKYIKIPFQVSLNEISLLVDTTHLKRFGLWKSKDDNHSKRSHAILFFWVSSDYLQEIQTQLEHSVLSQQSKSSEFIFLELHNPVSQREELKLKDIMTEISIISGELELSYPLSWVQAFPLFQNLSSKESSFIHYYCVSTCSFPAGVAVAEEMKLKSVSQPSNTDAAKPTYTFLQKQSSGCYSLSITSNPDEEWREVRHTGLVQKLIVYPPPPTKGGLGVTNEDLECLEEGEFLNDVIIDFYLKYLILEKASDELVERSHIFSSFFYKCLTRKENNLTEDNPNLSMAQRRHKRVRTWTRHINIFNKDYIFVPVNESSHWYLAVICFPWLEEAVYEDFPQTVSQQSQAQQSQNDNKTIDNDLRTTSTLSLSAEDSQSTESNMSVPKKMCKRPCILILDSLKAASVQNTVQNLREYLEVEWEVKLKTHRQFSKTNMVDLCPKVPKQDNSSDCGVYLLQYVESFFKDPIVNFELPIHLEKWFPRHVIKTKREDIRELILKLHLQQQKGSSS
As to the kind of experiment: SENP7 protease inhibitors, SAR follow-up, biochemical, luminescence (AID 504497). The format is functional.

In assay [5] the target is Delta-type opioid receptor (Homo sapiens, UniProt P41143). As to the kind of experiment: HTS Image-Based Screen for Agonists of the DOR Receptor. [Related pubchem assays (depositor defined):AID1777, AID1786, AID2133]. The class given is functional.
Assay [6] concerns the target T3, Heat shock factor protein 1 (Mus musculus, UniProt P38532).
T3 sequence (P38532 whole entry): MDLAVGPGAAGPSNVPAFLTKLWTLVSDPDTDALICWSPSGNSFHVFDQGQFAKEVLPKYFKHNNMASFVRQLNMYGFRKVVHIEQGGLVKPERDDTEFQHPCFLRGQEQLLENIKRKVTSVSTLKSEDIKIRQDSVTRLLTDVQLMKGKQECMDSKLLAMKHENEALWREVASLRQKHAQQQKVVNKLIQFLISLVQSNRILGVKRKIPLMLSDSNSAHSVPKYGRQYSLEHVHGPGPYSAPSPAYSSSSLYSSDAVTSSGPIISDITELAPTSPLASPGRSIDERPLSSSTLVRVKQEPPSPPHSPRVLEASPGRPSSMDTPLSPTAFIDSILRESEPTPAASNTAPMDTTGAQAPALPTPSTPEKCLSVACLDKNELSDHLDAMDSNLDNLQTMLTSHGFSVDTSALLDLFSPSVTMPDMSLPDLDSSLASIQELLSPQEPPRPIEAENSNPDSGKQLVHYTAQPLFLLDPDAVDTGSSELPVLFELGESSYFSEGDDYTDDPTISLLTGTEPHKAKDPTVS
Nature of the assay: inhibition of MG132-induced HSE-luciferase signal, confirmation, cell-based, NIH3T3, luminescence, dose retest (AID 2382).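 Further: NIH3T3 fibroblasts with HSF1-driven luciferase reporter stressed by proteasome inhibitor MG132; luminescence from HSF1-driven luciferase expression after 8 hours of MG132 stress.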 The class given is functional.

In the next assay the target is Beta-galactosidase (Escherichia coli, UniProt Q8VNN2). The class given is functional.
The nature of assay [7]: LGR2 antagonists, dose response, cell-based, HEK293, CRE-luciferase reporter, cherry pick, set 2 (AID 743343).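 Further: transfected cells were stimulated with diluted bursicon conditioned medium after compound addition.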 The format is functional. For orientation: In a reporter assay the amount or activity of a reporter protein is the signal.
Assay [8] is described as follows: MC4R antagonists, dose response, counter-screen for LGR2 antagonist project, cell-based, plate reader, cherry pick (AID 743444).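 Further: transfected HEK 293 cells stimulated with alpha-MSH peptide; potency of inhibitors of the alpha-MSH evoked signal.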 The format is functional. (The purpose of a counterscreen is to sort out artefacts and off-target activity.)

Chain of Delta-type opioid receptor (P41143 whole entry): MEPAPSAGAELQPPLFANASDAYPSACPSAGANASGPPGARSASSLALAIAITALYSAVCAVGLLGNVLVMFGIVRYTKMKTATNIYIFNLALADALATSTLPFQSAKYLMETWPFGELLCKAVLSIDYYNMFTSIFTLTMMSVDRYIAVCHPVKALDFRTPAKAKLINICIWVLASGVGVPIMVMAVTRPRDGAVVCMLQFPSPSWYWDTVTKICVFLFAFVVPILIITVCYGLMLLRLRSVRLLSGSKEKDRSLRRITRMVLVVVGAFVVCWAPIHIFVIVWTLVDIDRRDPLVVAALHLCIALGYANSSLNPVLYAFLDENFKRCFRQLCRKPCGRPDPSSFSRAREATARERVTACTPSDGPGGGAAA
Chain of Serine/threonine-protein phosphatase (Homo sapiens, UniProt Q9BPW0) (Q9BPW0 whole entry): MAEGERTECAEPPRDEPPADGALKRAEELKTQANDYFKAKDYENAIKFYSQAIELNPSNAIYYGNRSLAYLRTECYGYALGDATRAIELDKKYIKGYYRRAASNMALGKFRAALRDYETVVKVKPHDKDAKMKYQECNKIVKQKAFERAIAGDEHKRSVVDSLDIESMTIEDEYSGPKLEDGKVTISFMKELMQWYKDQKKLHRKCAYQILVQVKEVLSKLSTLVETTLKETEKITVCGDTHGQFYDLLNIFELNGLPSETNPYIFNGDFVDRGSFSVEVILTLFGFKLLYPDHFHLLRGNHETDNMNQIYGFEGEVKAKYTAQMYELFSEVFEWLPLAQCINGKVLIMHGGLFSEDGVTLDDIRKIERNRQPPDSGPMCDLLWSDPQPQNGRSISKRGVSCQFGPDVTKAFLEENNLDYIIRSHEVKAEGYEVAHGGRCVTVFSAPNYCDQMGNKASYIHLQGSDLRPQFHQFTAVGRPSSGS
Chain of Beta-galactosidase (Q8VNN2 whole entry): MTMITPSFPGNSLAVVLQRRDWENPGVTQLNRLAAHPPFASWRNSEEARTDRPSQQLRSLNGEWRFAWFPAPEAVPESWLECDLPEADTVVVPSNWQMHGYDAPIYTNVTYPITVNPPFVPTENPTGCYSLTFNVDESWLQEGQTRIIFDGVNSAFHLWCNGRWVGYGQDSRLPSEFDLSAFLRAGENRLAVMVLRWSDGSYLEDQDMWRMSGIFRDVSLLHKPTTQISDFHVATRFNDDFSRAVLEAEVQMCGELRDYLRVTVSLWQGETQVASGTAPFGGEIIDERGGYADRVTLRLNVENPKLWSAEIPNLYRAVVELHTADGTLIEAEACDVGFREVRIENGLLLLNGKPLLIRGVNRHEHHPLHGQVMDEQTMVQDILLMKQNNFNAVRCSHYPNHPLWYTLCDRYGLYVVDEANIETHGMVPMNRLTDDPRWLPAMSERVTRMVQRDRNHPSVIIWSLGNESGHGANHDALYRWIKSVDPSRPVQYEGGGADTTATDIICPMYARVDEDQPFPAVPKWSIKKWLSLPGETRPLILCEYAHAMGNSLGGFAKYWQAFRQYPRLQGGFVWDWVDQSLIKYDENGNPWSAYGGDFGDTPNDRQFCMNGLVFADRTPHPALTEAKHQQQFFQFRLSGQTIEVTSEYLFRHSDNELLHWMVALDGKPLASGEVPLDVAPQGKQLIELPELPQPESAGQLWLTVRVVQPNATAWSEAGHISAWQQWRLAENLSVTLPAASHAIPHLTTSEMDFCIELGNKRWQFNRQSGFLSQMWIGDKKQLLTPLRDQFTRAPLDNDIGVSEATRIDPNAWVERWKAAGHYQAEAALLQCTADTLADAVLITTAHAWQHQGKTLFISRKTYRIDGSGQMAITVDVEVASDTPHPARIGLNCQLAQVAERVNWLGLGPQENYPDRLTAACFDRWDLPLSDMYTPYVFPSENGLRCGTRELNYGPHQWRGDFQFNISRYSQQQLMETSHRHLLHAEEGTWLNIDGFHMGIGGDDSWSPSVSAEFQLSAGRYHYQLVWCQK

In general, EC50 refers to the concentration that produces a half-maximal response. On to `Cc1ccc(C)c(S(=O)(=O)N2CCN(Cc3ccc(O)c4ncccc34)CC2)c1`, for which the figures for the EC50 in assay [1] and in assay [2] were 1.14 µM (active) and 36 µM (active), respectively.
The term IC50 denotes the point on the concentration scale where inhibition reaches its midpoint. As to `Oc1ccc(/C=N\Nc2cc(N3CCOCC3)nc(N3CCOCC3)n2)c(O)c1`, the concentration for half-maximal inhibition (IC50) in [3] was 5.72 µM (active); in assay [4], 78 µM (active).
Usually AC50 stands for the concentration at which the activity in the assay is half-maximal. `COc1cc(NC(=O)Cn2ncc(Cl)c(Cl)c2=O)c(C)cc1[N+](=O)[O-]`: the EC50 in assay [5] was > 32 µM (inactive); in assay [6], 4.33 µM (active); on Beta-galactosidase it was > 31.5 µM (inactive). For the same compound, the figures for the AC50 in assay [7] and in assay [8] were 23.2 µM (active) and 29 µM (active), respectively.
